Data set [1] has as its target T1, ATP-binding cassette sub-family C member 4 (Homo sapiens, UniProt O15439).
T1 sequence (O15439 whole entry): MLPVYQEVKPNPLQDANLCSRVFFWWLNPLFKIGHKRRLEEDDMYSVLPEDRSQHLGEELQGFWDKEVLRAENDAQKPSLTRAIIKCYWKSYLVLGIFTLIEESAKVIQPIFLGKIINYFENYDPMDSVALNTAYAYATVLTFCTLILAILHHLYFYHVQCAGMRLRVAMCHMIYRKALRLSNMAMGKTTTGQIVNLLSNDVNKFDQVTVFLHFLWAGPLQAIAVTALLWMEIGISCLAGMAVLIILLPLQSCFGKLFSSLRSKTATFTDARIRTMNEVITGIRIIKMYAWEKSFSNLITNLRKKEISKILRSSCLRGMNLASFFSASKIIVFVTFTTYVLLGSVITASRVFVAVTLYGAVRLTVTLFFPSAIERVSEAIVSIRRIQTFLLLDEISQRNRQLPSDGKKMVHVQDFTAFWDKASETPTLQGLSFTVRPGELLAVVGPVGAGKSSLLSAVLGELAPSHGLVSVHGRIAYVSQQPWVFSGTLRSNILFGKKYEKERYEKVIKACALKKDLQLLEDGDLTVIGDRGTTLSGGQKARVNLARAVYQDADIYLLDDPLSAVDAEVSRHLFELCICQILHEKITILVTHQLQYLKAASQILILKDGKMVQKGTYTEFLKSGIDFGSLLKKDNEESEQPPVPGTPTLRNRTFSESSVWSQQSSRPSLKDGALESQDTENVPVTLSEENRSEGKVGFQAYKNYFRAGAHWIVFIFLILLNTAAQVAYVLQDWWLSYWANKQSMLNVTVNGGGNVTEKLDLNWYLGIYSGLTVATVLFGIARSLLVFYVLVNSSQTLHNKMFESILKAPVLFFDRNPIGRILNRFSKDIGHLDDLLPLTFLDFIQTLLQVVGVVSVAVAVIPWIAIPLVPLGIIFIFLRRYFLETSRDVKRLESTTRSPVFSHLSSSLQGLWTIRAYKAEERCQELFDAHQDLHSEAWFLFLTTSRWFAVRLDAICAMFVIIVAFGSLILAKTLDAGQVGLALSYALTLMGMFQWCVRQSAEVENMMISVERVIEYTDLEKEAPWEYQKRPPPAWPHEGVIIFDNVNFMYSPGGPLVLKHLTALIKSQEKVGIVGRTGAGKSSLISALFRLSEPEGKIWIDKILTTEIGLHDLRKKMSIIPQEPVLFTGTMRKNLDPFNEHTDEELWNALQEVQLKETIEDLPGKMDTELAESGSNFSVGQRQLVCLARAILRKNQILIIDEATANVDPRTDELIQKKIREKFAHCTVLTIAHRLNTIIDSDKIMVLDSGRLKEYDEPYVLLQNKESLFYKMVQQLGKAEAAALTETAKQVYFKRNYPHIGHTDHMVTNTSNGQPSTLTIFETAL
The data set is described as follows: TP_TRANSPORTER: inhibition of bimane-GS efflux in the presence of 1-chloro-2,4-dinitrobenzen(2,4-dinitrophenyl-glutathione) at a concentration of 100uM in MRP4-expressing HepG2 cells. Format: functional, cell-based. Also on record: scale not given: the % may be the effect or the level left. The conditions noted are these: hepg2, 100 µM.

For data set [2], the target named is T1, ATP-binding cassette sub-family C member 4. The data set is described as follows: TP_TRANSPORTER: inhibition of bimane-GS efflux in the presence of Benzbromarone at a concentration of 5uM in MRP4-expressing HepG2 cells. Format: functional, cell-based. Also on record: scale not given: the % may be the effect or the level left. The conditions noted are these: hepg2, 5 µM.

Data set [3] has the same target. Put plainly: TP_TRANSPORTER: efflux in MRP4-expressing HepG2 cells. The class given is functional, cell-based.
The target is the same in data set [4]. Put plainly: TP_TRANSPORTER: inhibition of bimane-GS efflux in the presence of Indomethacin at a concentration of 50uM in MRP4-expressing HepG2 cells. The class given is functional, cell-based. Also on record: scale not given: the % may be the effect or the level left. The conditions noted are these: hepg2, 50 µM.
Data set [5] has as its target T2, MRP4 (ATP-binding cassette sub-family C member 4) (Homo sapiens, UniProt O15439).
T2 sequence (O15439 whole entry): T1 sequence (O15439 whole entry)
The data set is described as follows: TP_TRANSPORTER: inhibition of bimane-GS efflux in the presence of Methotrexate at a concentration of 100uM in MRP4-expressing HepG2 cells. The class given is functional, cell-based. On the set-up: scale not given: the % may be the effect or the level left. Particulars: probe bimane-GS, read-out: Activity.

Data set [6] deals with T1, ATP-binding cassette sub-family C member 4. The data set is described as follows: TP_TRANSPORTER: inhibition of E217betaG uptake in membrane vesicles from MRP4-expressing Sf9 cells. The class given is functional, cell membranes, Membrane vesicle.
Data set [7] deals with T2, MRP4 (ATP-binding cassette sub-family C member 4). Put plainly: TP_TRANSPORTER: inhibition of bimane-GS efflux in the presence of 6-thioguanine at a concentration of 100uM in MRP4-expressing HepG2 cells. The conditions noted are these: probe bimane-GS, read-out: Activity. Also on record: scale not given: the % may be the effect or the level left. Format: functional, cell-based.

Molecules are shown by their SMILES.

With `NC(CCC(=O)NC(CSc1ccc([N+](=O)[O-])cc1[N+](=O)[O-])C(=O)NCC(=O)O)C(=O)O.O=[N+]([O-])c1ccc(Cl)c([N+](=O)[O-])c1` (configuration not stated), in data set [1], the Activity is on record as 27%. For the compound `CCc1oc2ccccc2c1C(=O)c1cc(Br)c(O)c(Br)c1` [BENZBROMARONE], the Activity in data set [2] came to 60%. On to `Cc1c(C)n2c(CSC[C@H](NC(=O)CC[C@H](N)C(=O)O)C(=O)CNC(=O)O)c(C)c(=O)n2c1=O` [Bimane-glutathione], for which, in data set [3], the Activity result was “substrate []”.

Take `COc1ccc2c(c1)c(CC(=O)O)c(C)n2C(=O)c1ccc(Cl)cc1` [INDOMETHACIN]: the Activity in data set [4] came out at 74%. On to `CN(Cc1cnc2nc(N)nc(N)c2n1)c1ccc(C(=O)N[C@@H](CCC(=O)O)C(=O)O)cc1` [METHOTREXATE], for which, in data set [5], the activity at 100 µM was found to be 53%. `C[C@]12CC[C@H](OS(=O)(=O)O)CC1=CC[C@@H]1[C@@H]2CC[C@]2(C)C(=O)CC[C@@H]12` [PRASTERONE SULFURIC ACID]: the IC50 in data set [6] was found to be 3 µM. For the compound `Nc1nc2nc[nH]c2c(=S)[nH]1` [THIOGUANINE], the activity at 100 µM in data set [7] amounted to 53%.

The values above are taken from ChEMBL document CHEMBL2073968, “Multidrug resistance protein 4 (MRP4/ABCC4) mediates efflux of bimane-glutathione” (Int J Biochem Cell Biol, 2004).
